Experiments:
[1] = test system: primary human renal proximal tubule epithelial cells; test: Protection from etoposide-induced cell death, CellTiter-Glo on day 7; format: cell-based; details: 16 h pretreatment, 2.5 μM etoposide 8 h, 7 days recovery
Procedure: FIG. 5: CDK4/6 inhibition protects primary human renal proximal tubule epithelial cells from etoposide-induced cell death. PD0332991 inhibits chemotherapy-induced cytotoxicity in a cdk4/6 dependent manner. Primary human renal proximal tubule epithelial cells were incubated with 30 nM or 100 nM PD0332991 for 16 hours. Etoposide (Etop, 2.5 μM) was added for 8 hours. Following incubation, the media was replaced with fresh media and the cells were incubated for an additional 7 days. On day 7, cell proliferation was assessed using CellTiter-Glo® (Promega, Madison, Wis., United States of America). Error bars show +/−standard deviation.
Primary normal human renal proximal epithelial cells (American Type Culture Collection (ATCC), Manassas, Va., United States of America) were cultured in renal epithelial cell basal media supplemented with renal epithelial cell growth kit according to the manufacturer's recommendations. […] For the γH2AX assay, cells were fixed, permeabilized, and stained with anti-γH2AX as per γH2AX Flow Kit (Millipore, Billerica, Mass., United States of America). γH2AX levels were assessed by flow cytometry. Cell proliferation was assessed by seeding 1×10^3 cells per well in a 96-well tissue culture plate in 100 μL of growth medium. […] 100 μL of TOXILIGHT™ reagent is added and incubated for 5 minutes and read in a luminometer at 1 second/well. […]

[2] = test system: renal cell proliferation in female FVB wt mice; test: EdU incorporation into whole kidney of cisplatin-treated mice (flow cytometry); format: in vivo, mouse
Procedure: FIG. 6: CDK4/6 inhibition blocks EdU incorporation into whole kidney in mice treated with cisplatin. […] EdU ([…]) was given IP every 24 hours prior to sacrifice. Kidneys were collected and single cell isolates were prepared and stained for EdU incorporation. Proliferation was assessed by flow cytometry. Data represents % of EdU staining in untreated, cisplatin-treated and cisplatin/PD0332991 treated cells.
[…] Proliferation was assessed by using BrdU (1 mg IP injection) every 6 hours for 24 hours prior to sacrifice or […] (0.1 mg IP) every 24 hours for 3 days prior to sacrifice.
Kidneys were harvested from mice and single cells were isolated using a gentleMACS™ tissue dissociator (Miltinyi Biotec, Bergisch Gladbach, Germany). Briefly, kidneys were cut into small pieces and placed in 10 ml collagenase (1 mg/ml) in a gentleMACS™ C tube (Miltinyi Biotec, Bergisch Gladbach, Germany). Tissue was dissociated following the manufacturer's recommendations (Miltinyi Biotec, Bergisch Gladbach, Germany). Cells were then incubated for 5 minutes in ACK buffer to lyse red blood cells, filtered and pelleted. Cells were resuspended in 4% paraformaldehyde and stored overnight at 4° C. For quantification of EdU incorporation, the cells were fixed, permeabilized, and stained with an APC EdU Flow Kit according to the manufacturer's instruction (Invitrogen Corporation, Carlsbad, Calif., United States of America). Flow cytometric analysis was performed using a CyAn ADP (Dako, Glostrup, Denmark). For each sample, a minimum of 500,000 cells was analyzed and the data were analyzed using FlowJo software (Tree Star, Inc., Ashland, Oreg., United States of America).
The kidney is relatively quiescent until challenged by a renal insult. Therefore, to determine whether renal cell proliferation was dependent on CDK4/6 activity in vivo, renal cell proliferation was stimulated by treating female FVB wt mice with cisplatin, a known nephrotoxic chemotherapeutic agent. At time 0 hr, mice were started on chow delivering PD0332991 100 mg/kg per day or standard chow with no drug. […]

[3] = test system: H417 small cell lung cancer cell line (intact RB); test: SCLC cell proliferation, WST-1, RB-intact line; format: cell-based; details: 100 nM
Procedure: (§1) FIG. 8: CDK4/6 inhibition potentiates proliferation of Rb deficient cells. […] Cell proliferation was assessed using WST-1 reagent. Each data point represents the mean of four replicates +/−SEM. CDK4/6 inhibition increases cell proliferation of RB-deficient cell lines.
(§2) Primary normal human renal proximal epithelial cells (American Type Culture Collection (ATCC), Manassas, Va., United States of America) were cultured in renal epithelial cell basal media supplemented with renal epithelial cell growth kit according to the manufacturer's recommendations. […] For the γH2AX assay, cells were fixed, permeabilized, and stained with anti-γH2AX as per γH2AX Flow Kit (Millipore, Billerica, Mass., United States of America). γH2AX levels were assessed by flow cytometry. Cell proliferation was assessed by seeding 1×10^3 cells per well in a 96-well tissue culture plate in 100 μL of growth medium. […] At the end of the recovery period, cell number was quantified using CellTiter-Glo® (Promega, Fitchburg, Wis., United States of America) or WST-1 reagent (TaKaRa Bio USA, Madison, Wis., United States of America). Cellular cytotoxicity was assessed using the TOXILIGHT™ Bioassay kit (Lonza, Basel, Switzerland) which measures cytolysis by quantifying the release of Adenylate Kinase into the culture media. […] 100 μL of TOXILIGHT™ reagent is added and incubated for 5 minutes and read in a luminometer at 1 second/well. […]

[4] = test system: RB-deficient small cell lung cancer cell lines (H69, H82, H209, H345); test: SCLC cell proliferation, WST-1, RB-deficient lines; format: cell-based; details: 100 nM, all four RB-deficient cell lines
Procedure: as §1, §2

CC(=O)c1c(C)c2cnc(Nc3ccc(N4CCNCC4)cn3)nc2n(C2CCCC2)c1=O [PD0332991, 6-acetyl-8-cyclopentyl-5-methyl-2-(5-piperazin-1-yl-pyridin-2-ylamino)-8H-pyrido-[2,3-d]-pyrimidin-7-one]
protection from etoposide-induced cell death [1]: protection from etoposide induced cell death | reduction in cell proliferation ([2]; cisplatin and PD0332991 vs cisplatin and vehicle control): 88% | cells labeled with EdU ([2]; kidney single cell suspension, 72 h, cisplatin 15 mg/kg IP, PD0332991 100 mg/kg per day in chow or no drug): approximately 2% | cell proliferation (WST-1) vs DMSO [3]: decreased | cell proliferation (WST-1) vs DMSO [4]: increased

Source: patent US9616062B2, “Cyclin dependent kinase inhibitors and methods of use” (priority 2009, dated 2017)
